IC50 and Ki data for seven molecules are collected here from ChEMBL document CHEMBL1909046, “DrugMatrix in vitro pharmacology data”.

The target of data set [1] is T1, 5-hydroxytryptamine receptor 2C (Homo sapiens, UniProt P28335).
T1 sequence (P28335 whole entry): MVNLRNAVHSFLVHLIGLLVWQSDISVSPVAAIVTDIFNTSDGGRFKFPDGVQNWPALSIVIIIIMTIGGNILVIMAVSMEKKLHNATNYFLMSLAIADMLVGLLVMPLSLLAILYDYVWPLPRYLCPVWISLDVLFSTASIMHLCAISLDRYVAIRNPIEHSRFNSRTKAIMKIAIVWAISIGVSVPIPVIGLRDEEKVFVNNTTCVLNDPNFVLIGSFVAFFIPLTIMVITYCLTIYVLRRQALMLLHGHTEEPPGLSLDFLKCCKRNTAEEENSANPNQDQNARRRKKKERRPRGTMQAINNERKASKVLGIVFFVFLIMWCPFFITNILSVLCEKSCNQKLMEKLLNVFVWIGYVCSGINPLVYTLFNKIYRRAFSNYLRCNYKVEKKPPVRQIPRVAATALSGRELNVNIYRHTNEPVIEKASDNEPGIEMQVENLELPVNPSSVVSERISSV
In words: DRUGMATRIX: Serotonin (5-Hydroxytryptamine) 5-HT2C radioligand binding (ligand: [3H] Mesulergine). In kind it is cell membranes, CHO-K1, Membrane. The following applies: Not Active = under 50% inhibition at 10 µM.

For data set [2], the target named is Insulin receptor (Rattus norvegicus, UniProt P15127). In kind it is cell membranes, Wistar, Liver, Membrane. Note: in other assays of this panel Not Active means under 50% inhibition at 10 µM.
Chain of Insulin receptor (P15127 27-759 limits assumed): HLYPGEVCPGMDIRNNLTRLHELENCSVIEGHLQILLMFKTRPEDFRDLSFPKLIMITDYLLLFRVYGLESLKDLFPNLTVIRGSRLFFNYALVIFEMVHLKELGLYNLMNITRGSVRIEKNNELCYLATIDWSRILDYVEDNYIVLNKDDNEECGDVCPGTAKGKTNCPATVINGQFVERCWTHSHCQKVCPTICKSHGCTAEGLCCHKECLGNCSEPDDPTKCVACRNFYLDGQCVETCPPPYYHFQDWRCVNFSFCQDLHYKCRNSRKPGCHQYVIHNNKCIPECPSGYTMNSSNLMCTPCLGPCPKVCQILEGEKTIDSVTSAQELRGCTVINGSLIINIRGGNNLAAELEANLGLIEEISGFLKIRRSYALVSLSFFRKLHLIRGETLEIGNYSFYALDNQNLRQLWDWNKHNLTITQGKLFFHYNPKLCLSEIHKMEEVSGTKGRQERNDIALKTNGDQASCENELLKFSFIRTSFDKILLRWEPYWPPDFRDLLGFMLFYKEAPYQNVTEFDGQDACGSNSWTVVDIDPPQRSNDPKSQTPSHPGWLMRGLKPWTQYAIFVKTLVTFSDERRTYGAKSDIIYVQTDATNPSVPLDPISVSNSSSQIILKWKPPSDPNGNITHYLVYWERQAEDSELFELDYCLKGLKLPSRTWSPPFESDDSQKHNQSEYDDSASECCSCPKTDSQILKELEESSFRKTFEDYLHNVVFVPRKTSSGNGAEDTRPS
Chain of Insulin receptor (P15127 764-1383 limits assumed): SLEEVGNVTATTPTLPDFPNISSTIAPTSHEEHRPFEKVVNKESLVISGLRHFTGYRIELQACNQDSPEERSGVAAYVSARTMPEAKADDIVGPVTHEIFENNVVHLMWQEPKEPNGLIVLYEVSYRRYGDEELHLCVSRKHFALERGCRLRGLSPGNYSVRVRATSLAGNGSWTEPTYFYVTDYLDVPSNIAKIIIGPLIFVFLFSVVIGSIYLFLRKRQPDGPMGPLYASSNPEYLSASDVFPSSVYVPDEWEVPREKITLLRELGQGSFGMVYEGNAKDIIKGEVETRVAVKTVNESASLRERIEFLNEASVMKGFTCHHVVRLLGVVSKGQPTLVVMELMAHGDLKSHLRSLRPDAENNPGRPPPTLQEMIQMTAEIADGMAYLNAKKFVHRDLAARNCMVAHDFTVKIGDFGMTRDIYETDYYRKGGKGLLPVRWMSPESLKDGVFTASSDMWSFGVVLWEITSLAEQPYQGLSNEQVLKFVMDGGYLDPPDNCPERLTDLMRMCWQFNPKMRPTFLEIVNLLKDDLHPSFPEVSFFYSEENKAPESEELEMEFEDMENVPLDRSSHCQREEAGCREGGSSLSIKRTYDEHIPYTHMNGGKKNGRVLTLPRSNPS
In data set [3] the target is T2, Leukotriene C4 synthase (Cavia porcellus, UniProt A6XA80).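 Note: enzyme inhibition assay of leukotriene C4 synthase, using LTA4 as the substrate; in other assays of this panel Not Active means under 50% inhibition at 10 µM.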
T2 sequence (A6XA80 whole entry): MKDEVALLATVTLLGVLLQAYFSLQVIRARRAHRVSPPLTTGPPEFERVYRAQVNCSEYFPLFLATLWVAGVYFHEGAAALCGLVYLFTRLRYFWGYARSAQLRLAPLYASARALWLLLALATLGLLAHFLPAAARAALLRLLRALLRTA
Nature of the data set: biochemical. The data set is classed as tissue-based, Lung.

The target of data set [4] is Delta-type opioid receptor (Homo sapiens, UniProt P41143). In kind it is cell membranes, HEK293, Membrane. The following applies: hek293. Note: in other assays of this panel Not Active means under 50% inhibition at 10 µM.
Chain of Delta-type opioid receptor (P41143 whole entry): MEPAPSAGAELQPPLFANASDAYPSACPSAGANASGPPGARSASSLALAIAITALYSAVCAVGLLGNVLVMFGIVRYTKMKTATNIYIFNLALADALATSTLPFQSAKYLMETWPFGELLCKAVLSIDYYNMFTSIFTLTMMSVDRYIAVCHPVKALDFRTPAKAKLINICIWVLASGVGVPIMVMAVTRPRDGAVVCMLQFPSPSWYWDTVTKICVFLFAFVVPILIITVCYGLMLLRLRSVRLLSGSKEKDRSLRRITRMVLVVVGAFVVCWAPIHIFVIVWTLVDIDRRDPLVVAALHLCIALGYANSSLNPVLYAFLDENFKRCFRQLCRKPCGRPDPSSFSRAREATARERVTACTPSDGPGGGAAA
The target of data set [5] is Mu-type opioid receptor (Homo sapiens, UniProt P35372). Nature of the data set: DRUGMATRIX: Opiate mu (OP3, MOP) radioligand binding (ligand: [3H] Diprenorphine). The data set is classed as cell membranes, CHO-K1, Membrane. To be noted: cho-k1; Not Active = under 50% inhibition at 10 µM.
Chain of Mu-type opioid receptor (P35372 whole entry): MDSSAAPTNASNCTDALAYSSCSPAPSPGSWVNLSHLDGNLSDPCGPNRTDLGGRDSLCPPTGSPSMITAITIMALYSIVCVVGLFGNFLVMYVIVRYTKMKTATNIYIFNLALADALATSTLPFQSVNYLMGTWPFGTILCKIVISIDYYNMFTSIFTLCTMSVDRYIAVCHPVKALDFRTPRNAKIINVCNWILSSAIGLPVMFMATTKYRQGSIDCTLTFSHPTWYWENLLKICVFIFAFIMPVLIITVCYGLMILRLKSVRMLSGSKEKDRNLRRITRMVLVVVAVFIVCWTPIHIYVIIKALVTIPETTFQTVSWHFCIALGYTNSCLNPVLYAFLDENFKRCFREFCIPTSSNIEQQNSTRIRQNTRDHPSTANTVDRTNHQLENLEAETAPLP
Data set [6] has as its target T3, 5-hydroxytryptamine receptor 1A (Rattus norvegicus, UniProt P19327). Note: in other assays of this panel Not Active means under 50% inhibition at 10 µM.
T3 sequence (P19327 whole entry): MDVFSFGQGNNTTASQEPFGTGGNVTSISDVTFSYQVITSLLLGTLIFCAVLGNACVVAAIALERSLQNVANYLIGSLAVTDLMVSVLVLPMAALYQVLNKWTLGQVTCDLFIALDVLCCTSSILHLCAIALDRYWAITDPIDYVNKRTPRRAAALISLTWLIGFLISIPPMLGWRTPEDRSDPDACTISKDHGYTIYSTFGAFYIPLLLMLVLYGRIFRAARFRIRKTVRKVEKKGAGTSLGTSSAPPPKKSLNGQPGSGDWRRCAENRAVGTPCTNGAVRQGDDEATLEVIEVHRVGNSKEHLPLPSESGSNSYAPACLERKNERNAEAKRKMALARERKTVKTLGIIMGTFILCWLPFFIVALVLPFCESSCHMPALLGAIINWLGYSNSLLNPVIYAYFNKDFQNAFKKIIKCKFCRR
In kind it is cell membranes, CHO-K1, Membrane.

In data set [7] the target is Aldo-keto reductase family 1 member B1 (Rattus norvegicus, UniProt P07943). In kind it is tissue-based, Lens of camera-type eye.
The target in data set [8] is T4, Cytochrome P450 2A6 (Homo sapiens, UniProt P11509). Note: in other assays of this panel Not Active means under 50% inhibition at 10 µM.
T4 sequence (P11509 whole entry): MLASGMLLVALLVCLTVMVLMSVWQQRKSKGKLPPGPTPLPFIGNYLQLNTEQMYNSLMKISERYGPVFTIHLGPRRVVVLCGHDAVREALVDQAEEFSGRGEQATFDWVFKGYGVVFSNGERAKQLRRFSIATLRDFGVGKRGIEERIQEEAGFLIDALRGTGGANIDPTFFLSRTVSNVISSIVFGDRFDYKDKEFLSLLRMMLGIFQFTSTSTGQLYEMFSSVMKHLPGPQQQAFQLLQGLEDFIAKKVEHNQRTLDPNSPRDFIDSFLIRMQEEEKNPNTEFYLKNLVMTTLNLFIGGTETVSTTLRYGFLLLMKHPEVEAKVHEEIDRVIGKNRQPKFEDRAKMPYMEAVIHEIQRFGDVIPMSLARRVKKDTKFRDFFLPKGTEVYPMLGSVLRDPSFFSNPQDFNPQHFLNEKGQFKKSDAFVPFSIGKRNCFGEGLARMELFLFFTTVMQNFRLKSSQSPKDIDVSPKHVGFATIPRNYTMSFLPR
The following applies: bti-tn-5b1-4.

Data set [9] has as its target Melanocortin receptor 3 (Homo sapiens, UniProt P41968). The data set is classed as cell membranes, Membrane. To be noted: hek293. Note: in other assays of this panel Not Active means under 50% inhibition at 10 µM.
Data set [10] deals with T5, Muscarinic acetylcholine receptor M5 (Homo sapiens, UniProt P08912).
T5 sequence (P08912 whole entry): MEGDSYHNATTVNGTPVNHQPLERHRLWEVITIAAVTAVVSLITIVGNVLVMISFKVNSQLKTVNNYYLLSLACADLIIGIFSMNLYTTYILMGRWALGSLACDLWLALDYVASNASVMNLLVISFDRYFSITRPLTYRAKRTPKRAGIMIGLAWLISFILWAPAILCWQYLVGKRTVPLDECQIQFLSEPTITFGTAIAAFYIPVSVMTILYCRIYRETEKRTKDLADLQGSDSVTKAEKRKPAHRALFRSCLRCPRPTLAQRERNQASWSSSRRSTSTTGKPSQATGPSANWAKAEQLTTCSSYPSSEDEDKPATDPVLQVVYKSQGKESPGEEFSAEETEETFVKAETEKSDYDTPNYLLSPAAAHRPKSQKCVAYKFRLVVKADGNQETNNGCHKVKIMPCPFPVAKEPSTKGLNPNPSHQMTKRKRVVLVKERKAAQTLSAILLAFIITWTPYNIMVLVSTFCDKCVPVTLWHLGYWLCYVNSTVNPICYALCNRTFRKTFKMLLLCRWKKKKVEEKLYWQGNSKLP
The data set is classed as cell membranes, CHO-K1, Membrane. The following applies: for Ki: read-out: Ki.

Data set [11] can be described thus: DRUGMATRIX: GABAA, Chloride Channel, TBOB radioligand binding (ligand: [3H] TBOB). The data set is classed as cell membranes, Rattus norvegicus, Wistar, Cerebral cortex, Membrane. To be noted: Not Active = under 50% inhibition at 10 µM.
The nature of data set [12]: DRUGMATRIX: Serotonin (5-Hydroxytryptamine) 5-HT3 radioligand binding (ligand: [3H] GR-65630). To be noted: hek293; Not Active = under 50% inhibition at 10 µM. In kind it is cell membranes, Membrane.
The nature of data set [13]: DRUGMATRIX: Glutamate, NMDA, Agonism radioligand binding (ligand: [3H] CGP-39653). In kind it is cell membranes, Rattus norvegicus, Wistar, Cerebral cortex, Membrane. To be noted: Not Active = under 50% inhibition at 10 µM.
Data set [14] in a line: DRUGMATRIX: Leukotriene, BLT (LTB4) radioligand binding (ligand: [3H]LTB4). The data set is classed as cell membranes, Membrane. To be noted: u-937; Not Active = under 50% inhibition at 10 µM.

Chain of Melanocortin receptor 3 (P41968 whole entry): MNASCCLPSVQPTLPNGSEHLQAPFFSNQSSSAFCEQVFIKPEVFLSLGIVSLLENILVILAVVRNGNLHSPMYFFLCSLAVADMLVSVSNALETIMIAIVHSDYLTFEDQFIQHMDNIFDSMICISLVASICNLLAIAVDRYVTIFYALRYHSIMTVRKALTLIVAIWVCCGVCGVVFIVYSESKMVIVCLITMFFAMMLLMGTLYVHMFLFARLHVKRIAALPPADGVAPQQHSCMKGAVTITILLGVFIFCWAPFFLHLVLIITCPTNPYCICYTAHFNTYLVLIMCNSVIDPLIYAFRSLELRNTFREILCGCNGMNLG

Broadly, the IC50 is the concentration at which inhibition is half-maximal. One may read the Ki as the dissociation constant of the complex between target and ligand, obtained from inhibition or displacement. Take `CN(C)CCCN1c2ccccc2CCc2ccc(Cl)cc21` [CLOMIPRAMINE]: the IC50 in data set [1] (read-out: IC50) is 34 nM; in [2], “Not Active”; in data set [3], “Not Active”; in data set [4], “Not Active”; in data set [5] it was “Not Active”; in [6] (cho-k1) it was “Not Active”. The IC50 entry is “Not Active” in data set [7], “Not Active” in data set [8], “Not Active” in [9] and 53 nM in data set [10] (read-out: IC50). For the same molecule, the figures for the Ki in data set [1] (read-out: Ki), in data set [8] and in data set [10] were 18 nM, “Not Active” and 38 nM, respectively.

For `CN1CCN2c3ccccc3Cc3ccccc3C2C1` (configuration not stated) [MIANSERIN], the 50% inhibitory concentration (IC50) entry in data set [2] was “Not Active”; in [3] it was “Not Active”; in data set [4], “Not Active”; in [5] it was “Not Active”; in data set [6] (read-out: IC50) it was 872 nM; in [7], “Not Active”. In addition, the IC50 result in data set [8] was “Not Active”; in data set [9], “Not Active”; in data set [10] (read-out: IC50) it was 320 nM. Besides, the Ki in [6] (read-out: Ki) is 498 nM; in data set [8] it was “Not Active”; in data set [10], 230 nM.

Consider `O=C1c2c(O)ccc(O)c2C(=O)c2c(NCCNCCO)ccc(NCCNCCO)c21` [MITOXANTRONE], for which the IC50 result in [2], in data set [3], in data set [4], in data set [5], in data set [11] and in data set [6] (cho-k1) was “Not Active” in each case. Also, the IC50 entry in data set [7], in data set [12], in data set [9], in data set [13], in [14] and in [10] (cho-k1) was “Not Active” in each case. In addition, the Ki result in data set [11], in data set [12], in [13] and in data set [14] was “Not Active” in each case.

On to `CC(C)(O)c1ccccc1CC[C@@H](SCC1(CC(=O)O)CC1)c1cccc(/C=C/c2ccc3ccc(Cl)cc3n2)c1` [MONTELUKAST], for which the IC50 result in [1] (cho-k1), in data set [2], in data set [3], in data set [5], in data set [6] (cho-k1) and in data set [7] was “Not Active” throughout. For the same molecule, the IC50 result in data set [8] and in data set [9] was “Not Active” in each case. Moreover, the Ki entry in data set [8] is recorded as “Not Active”.

With `CSc1ccc2c(c1)N(CCC1CCCCN1C)c1ccccc1S2` (configuration not stated) [THIORIDAZINE], the 50% inhibitory concentration (IC50) entry was “Not Active” in [2]; “Not Active” in data set [3]; “Not Active” in data set [4]; “Not Active” in data set [5]; 60 nM in [6] (read-out: IC50); “Not Active” in data set [7]. For the same molecule, the IC50 result in data set [8] and in [9] was “Not Active” in each case. In addition, the Ki in data set [6] (read-out: Ki) was 34 nM; in data set [8] it was “Not Active”.

Turning to `COC(=O)[C@@H]1[C@H]2C[C@H]3c4[nH]c5ccccc5c4CCN3C[C@@H]2CC[C@@H]1O` [YOHIMBINE], the IC50 result in data set [1] (cho-k1), in data set [2], in [3], in [4], in data set [5] and in [11] was “Not Active” throughout. In addition, the IC50 result in [7], in [12], in data set [9], in [13], in [14] and in data set [10] (cho-k1) was “Not Active” throughout. The Ki entry in data set [11], in data set [12], in data set [13] and in data set [14] was “Not Active” each time.

Regarding IVERMECTIN, the IC50 result in data set [1] (cho-k1), in [2], in data set [3], in data set [4], in data set [11] and in [6] (cho-k1) was “Not Active” throughout. The IC50 entry in data set [7], in data set [12], in data set [8], in [9], in data set [13] and in data set [14] was “Not Active” in each case. Also, the IC50 in [10] (cho-k1, read-out: IC50) is 3610 nM. In addition, the Ki result in data set [1] (cho-k1), in data set [2], in data set [3], in data set [4], in data set [11] and in data set [6] (cho-k1) was “Not Active” each time. In addition, the inhibition constant Ki result in data set [7], in data set [12], in [8], in data set [9], in data set [13] and in data set [14] was “Not Active” in each case. Besides, the Ki in data set [10] (cho-k1) worked out at 2590 nM.
